Measured values as given in ChEMBL document CHEMBL3259781 (J Med Chem, 2014).
≈ marks a conversion by molar mass, not a printed value.

Key:
Adenosine receptor A1 [1] = biological target: T1, Adenosine receptor A1 (Homo sapiens, UniProt P30542)
T1 sequence (P30542 whole entry): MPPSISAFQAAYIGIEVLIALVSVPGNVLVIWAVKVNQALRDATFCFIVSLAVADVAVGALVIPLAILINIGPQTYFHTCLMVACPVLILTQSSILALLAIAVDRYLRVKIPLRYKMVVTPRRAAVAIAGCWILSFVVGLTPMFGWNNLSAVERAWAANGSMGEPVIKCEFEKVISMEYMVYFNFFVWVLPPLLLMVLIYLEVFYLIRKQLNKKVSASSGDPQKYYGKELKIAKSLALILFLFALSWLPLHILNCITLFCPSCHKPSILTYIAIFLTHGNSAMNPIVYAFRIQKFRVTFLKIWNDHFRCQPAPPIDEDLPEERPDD

Homo sapiens = species: Homo sapiens; test: Selectivity ratio of Ki for human recombinant adenosine A1 receptor to Ki for human recombinant adenosine receptor A2a
Mus musculus [2] = test: Anticataleptic activity in mouse assessed as inhibition of CGS21680-induced catalepsy at 10 mg/kg, po; format: functional
Adenosine receptor A3 [3] = biological target: T2, Adenosine receptor A3 (Homo sapiens, UniProt P0DMS8)
T2 sequence (P0DMS8 whole entry): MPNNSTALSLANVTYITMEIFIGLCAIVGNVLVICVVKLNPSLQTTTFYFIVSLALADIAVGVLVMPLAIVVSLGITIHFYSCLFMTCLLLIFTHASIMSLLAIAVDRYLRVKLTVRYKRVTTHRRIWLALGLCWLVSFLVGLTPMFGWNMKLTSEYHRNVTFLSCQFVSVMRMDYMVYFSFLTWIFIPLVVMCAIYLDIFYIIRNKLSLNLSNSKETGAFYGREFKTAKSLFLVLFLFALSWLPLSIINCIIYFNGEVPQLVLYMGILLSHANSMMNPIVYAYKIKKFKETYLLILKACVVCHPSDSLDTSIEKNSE

[4] = biological target: Adenosine receptor A2a (Rattus norvegicus) (UniProt P30543); test: Receptor occupancy at adenosine receptor A2a in rat striatum; format: tissue-based
Rattus norvegicus [5] = species: Rattus norvegicus; test: Anticataleptic activity in rat assessed as minimum efficacious dose; format: functional; conditions: read-out: MED
Rattus norvegicus [6] = species: Rattus norvegicus; test: Selectivity ratio of Ki for rat striatal adenosine A1 receptor to Ki for rat recombinant adenosine receptor A2a
Adenosine receptor A2b [7] = biological target: T3, Adenosine receptor A2b (Homo sapiens, UniProt P29275)
T3 sequence (P29275 whole entry): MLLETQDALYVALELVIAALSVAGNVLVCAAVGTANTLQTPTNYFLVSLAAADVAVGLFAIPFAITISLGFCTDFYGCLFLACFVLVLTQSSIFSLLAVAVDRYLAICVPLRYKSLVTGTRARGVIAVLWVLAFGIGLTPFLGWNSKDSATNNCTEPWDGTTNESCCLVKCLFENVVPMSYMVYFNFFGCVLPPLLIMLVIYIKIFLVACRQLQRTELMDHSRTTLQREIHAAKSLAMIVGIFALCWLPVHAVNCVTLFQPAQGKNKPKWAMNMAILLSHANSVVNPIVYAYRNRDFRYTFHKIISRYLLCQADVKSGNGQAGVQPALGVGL

Rattus norvegicus [8] = test: Anticataleptic activity in rat assessed as inhibition at 1 mg/kg, po after 1 hr; format: functional; conditions: Rattus norvegicus, po, 1 h
Rattus norvegicus [9] = test: Anticataleptic activity in rat assessed as inhibition at 1 mg/kg, po after 4 hrs; format: functional; conditions: Rattus norvegicus, po, 4 h
[10] = Solubility of the compound in water pH 7.4; format: physicochemical
Rattus norvegicus [11] = test: Anticataleptic activity in rat assessed as inhibition at 3 mg/kg, po after 1 hr; format: functional
[12] = Half life in rat; format: ADME, organism-based; conditions: in vivo
[13] = Plasma clearance in rat; format: ADME, organism-based
Adenosine receptor A2a [14] = biological target: Adenosine receptor A2a (Rattus norvegicus, UniProt P30543); test: Binding affinity to rat recombinant adenosine receptor A2a
Rattus norvegicus [15] = test: Anticataleptic activity in rat assessed as inhibition at 3 mg/kg, po after 4 hrs; format: functional
Mus musculus [16] = test: Anticataleptic activity in po dosed mouse assessed as inhibition of haloperidol-induced catalepsy; format: functional
[17] = Oral bioavailability in rat; format: ADME, organism-based; conditions: in vivo
Adenosine receptor A1 [18] = biological target: T4, Adenosine receptor A1 (Rattus norvegicus, UniProt P25099); test: Binding affinity to rat recombinant adenosine A1 receptor
T4 sequence (P25099 whole entry): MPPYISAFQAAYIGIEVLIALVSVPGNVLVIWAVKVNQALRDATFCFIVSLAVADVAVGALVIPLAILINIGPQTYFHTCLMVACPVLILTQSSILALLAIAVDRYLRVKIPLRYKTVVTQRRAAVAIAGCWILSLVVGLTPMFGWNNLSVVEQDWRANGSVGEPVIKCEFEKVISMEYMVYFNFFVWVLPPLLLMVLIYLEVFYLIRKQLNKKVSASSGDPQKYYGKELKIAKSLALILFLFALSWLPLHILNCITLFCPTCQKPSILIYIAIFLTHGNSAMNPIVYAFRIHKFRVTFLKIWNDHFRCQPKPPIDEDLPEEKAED

Adenosine receptor A3 [19] = biological target: T2, Adenosine receptor A3; test: Binding affinity to human recombinant adenosine A3 receptor
Adenosine receptor A2a [20] = biological target: T5, Adenosine receptor A2a (Homo sapiens, UniProt P29274)
Adenosine receptor A2a [21] = biological target: T5, Adenosine receptor A2a; remark: listed apart in the source
Adenosine receptor A1 [22] = biological target: T1, Adenosine receptor A1; remark: listed apart in the source
Adenosine receptor A2b [23] = biological target: T3, Adenosine receptor A2b; remark: listed apart in the source
Rattus norvegicus [24] = test: Anticataleptic activity in po dosed rat assessed as inhibition of haloperidol-induced catalepsy; format: functional

T5 sequence (P29274 whole entry): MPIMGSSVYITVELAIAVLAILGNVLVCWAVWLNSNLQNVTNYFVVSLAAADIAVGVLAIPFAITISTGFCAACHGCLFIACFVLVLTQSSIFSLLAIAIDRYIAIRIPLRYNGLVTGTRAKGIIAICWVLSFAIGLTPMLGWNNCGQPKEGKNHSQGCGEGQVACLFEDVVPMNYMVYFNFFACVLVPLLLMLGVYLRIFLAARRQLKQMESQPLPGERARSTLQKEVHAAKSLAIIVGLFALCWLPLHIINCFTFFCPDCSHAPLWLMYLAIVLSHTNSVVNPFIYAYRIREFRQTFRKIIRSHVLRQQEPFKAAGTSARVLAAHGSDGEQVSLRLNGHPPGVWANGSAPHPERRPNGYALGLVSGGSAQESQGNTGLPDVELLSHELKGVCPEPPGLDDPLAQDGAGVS
Sequence of Adenosine receptor A2a (Rattus norvegicus, UniProt P30543) (P30543 whole entry): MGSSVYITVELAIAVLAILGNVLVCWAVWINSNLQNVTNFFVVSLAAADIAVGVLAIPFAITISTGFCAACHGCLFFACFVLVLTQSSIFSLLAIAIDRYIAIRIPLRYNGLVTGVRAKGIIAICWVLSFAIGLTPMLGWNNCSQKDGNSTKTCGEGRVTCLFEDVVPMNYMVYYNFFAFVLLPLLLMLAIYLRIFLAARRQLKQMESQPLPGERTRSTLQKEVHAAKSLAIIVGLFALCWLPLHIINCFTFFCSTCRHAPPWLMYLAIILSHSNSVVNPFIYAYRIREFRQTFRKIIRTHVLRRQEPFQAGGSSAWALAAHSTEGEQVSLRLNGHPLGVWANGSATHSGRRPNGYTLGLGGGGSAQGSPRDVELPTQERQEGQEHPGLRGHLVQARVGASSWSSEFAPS
Sequence of Adenosine receptor A2a (Rattus norvegicus) (P30543 whole entry): as above

CC(O)CCc1nc(N)c2nc(-n3nccn3)n(C)c2n1 (configuration not stated)
Ki (Adenosine receptor A1 [1]): 0.024 µM
Ratio Ki (Homo sapiens): 3

COc1ccc(N2CCOCC2)c2cc(C(=O)Nc3ccncc3)oc12
inhibition in vivo at 10 mg/kg (Mus musculus [2]): 76%

Nc1nc(NCCc2ccc(O)cc2)nc2nc(-c3ccco3)nn12 [ZM-241385]
Ki (Adenosine receptor A3 [3]): > 10 µM

CC(C)n1cc(-c2ncc(N)nc2-c2ccc(F)cc2)ccc1=O
Ki (Adenosine receptor A3 [3]): > 0.557 µM
Activity [4]: 85%
minimal effective dose (Rattus norvegicus [5]): 0.1 mg/kg

CC(O)(C#Cc1cn2nc(-c3ccco3)nc2c(N)n1)c1ccccc1 (configuration not stated)
Ratio Ki (Rattus norvegicus [6]): 3.4

Nc1nc2c(cnn2CCN2CCOCC2)c2nn(Cc3cccc(Cl)c3)c(=O)n12
Ki (Adenosine receptor A1 [1]): 1.4 µM
Ratio Ki (Homo sapiens): 99

O[C@H](c1cc(C(F)(F)F)nc2c(C(F)(F)F)cccc12)[C@@H]1CCCCN1 [(R,S)-MEFLOQUINE]
Ki (Adenosine receptor A2b [7]): 7.07 µM

Nc1nc(-c2ccco2)c2ncn(C(=O)NCc3ccccc3)c2n1
Ki (Adenosine receptor A3 [3]): 1.47 µM
Ki (Adenosine receptor A2b [7]): 0.112 µM

Cc1cc(C)n(-c2cc(NC(=O)CN3CCN(C)CC3)nc(-c3nccs3)n2)n1
Ratio Ki (Homo sapiens): 222

COCCOc1ccc(N2CCN(CCn3cnc4c3nc(N)n3nc(-c5ccco5)nc43)CC2)cc1
inhibition in vivo at 1 mg/kg (Rattus norvegicus [8]): 55%
inhibition in vivo at 1 mg/kg (Rattus norvegicus [9]): 50%
Ki (Adenosine receptor A1 [1]): 0.602 µM
Ratio Ki (Homo sapiens): 669

CN(C)CCn1ncc2c1nc(N)n1c(=O)n(Cc3cccc(Cl)c3)nc21
Ki (Adenosine receptor A1 [1]): 1.4 µM
Ratio Ki (Homo sapiens): 269

Cc1cnc2c(c1)CN(CCn1ncc3c1nc(N)n1nc(-c4ccco4)nc31)CC2
solubility [10]: 100 µM (≈ 41.5 µg/mL)
inhibition in vivo at 1 mg/kg (Rattus norvegicus [8]): 65%
inhibition in vivo at 3 mg/kg (Rattus norvegicus [11]): 80%
half-life [12]: 11.3 h
clearance [13]: 4.7 mL/min/kg
Ki (Adenosine receptor A1 [1]): 0.358 µM

Nc1nc(Nc2ccccc2)nc2c1ncn2[C@@H]1O[C@H](CO)[C@@H](O)[C@H]1O
Ki (Adenosine receptor A2a [14]): 0.1 µM

Cn1c(=O)c2c(ncn2C)n(C)c1=O [CAFFEINE]
inhibition in vivo at 3 mg/kg (Rattus norvegicus [11]): 35%
inhibition in vivo at 3 mg/kg (Rattus norvegicus [15]): 14%

Nc1nc(-c2ccco2)c2c(n1)-c1ccccc1C2=O
ED50 (Mus musculus [16]): 5 mg/kg

COCc1cccc(CNC(=O)c2cc(-c3ccco3)nc(N)n2)n1
solubility [10]: > 450 µM
bioavailability [17]: 90%
Ratio Ki (Homo sapiens): 25

CC(C)c1nc(-c2nccs2)c2sccc2n1
bioavailability [17]: 5.8%
Ratio Ki (Homo sapiens): 148

O=C(Nc1ccc(F)cc1)Nc1ccc(Nc2nc(-c3ccccc3)nc3c2nnn3Cc2ccccc2)cc1
Ki (Adenosine receptor A1 [18]): 0.107 µM
Ki (Adenosine receptor A3 [19]): 0.092 µM
Ki (Adenosine receptor A2a [20]): 0.167 µM

COc1ccc(C2CCOCC2)c2oc(NC(=O)c3ccnc(N4CCOCC4)c3)nc12
Ki (Adenosine receptor A2a [21]): 0.025 µM
Ki (Adenosine receptor A1 [1]): 8.78 µM
Ratio Ki (Homo sapiens): 351

CNC(=O)c1cnn(-c2nc(N)c3ncn([C@@H]4O[C@H](CO)[C@@H](O)[C@H]4O)c3n2)c1 [REGADENOSON ANHYDROUS]
Ki (Adenosine receptor A1 [22]): 3.77 µM
Ki (Adenosine receptor A3 [19]): 10 µM
EC50 (Adenosine receptor A2b [23]): 10 µM

CC1CN(c2nnc(N)nc2-c2ccccc2)CC(C)O1 (configuration not stated)
Ki (Adenosine receptor A1 [1]): 10 µM
Ratio Ki (Homo sapiens): 617

Nc1nc(-c2ccccc2)c2c(n1)-c1cc(CN3CCCC3)ccc1C2=O
ED50 (Rattus norvegicus [24]): 0.5 mg/kg
